Measurements: patent US20250034130A1, “Crystal Form of Tolebrutinib, Preparation Method Therefor and Use Thereof” (Principia Biopharma Inc., priority 2021, published 2025)
“Also recorded” adds a separate entry of the source.

Columns and labels:
Assay type in all cases: physicochemical
[1] = Stability at high temperature (80° C., 2 days, purity by UPLC); settings: for Chemical purity (in words) / Purity change: 2 days; for Purity change: glass vial with cap
Procedure: (§1) The related substance in the present disclosure was detected by UPLC and the parameters are shown below.
Certain amounts of Form CSII of the present disclosure and the prior art amorphous form were weighted and stored at 80° C. for 2 days, and the purities of the solids before and after storage were determined by UPLC, the results are as shown in Table 4.
Certain amounts of Form CSIII of the present disclosure and the prior art amorphous form were weighted and stored at 80° C. for 2 days, and the purities of the solids before and after storage were determined by UPLC, the results are as shown in Table 11.
Certain amounts of Form CSIV of the present disclosure and the prior art amorphous form were stored at 80° C. for 2 days, and the purities of the solids before and after storage were determined by UPLC, the results are as shown in Table 17.

[2] = Physical and chemical stability on storage in opened packages (purity by UPLC, solid form by XRPD)
Procedure: X-ray powder diffraction patterns in the present disclosure were acquired by a Bruker X-ray powder diffractometer. The parameters of the X-ray powder diffraction method of the present disclosure are as follows: • X-Ray: Cu, Kα • Kα1 (Å): 1.54060; Kα2 (Å): 1.54439 • Kα2/Kα1 intensity ratio: 0.50
as §1
Said “room temperature” is not a specific temperature, but a temperature range of 10-30° C. Said “open packaged” is putting the sample into a glass vial, covering the vial with aluminum foil, and punching 5-10 holes on the foil.
Form CSII of the present disclosure and the prior art amorphous form were weighed and stored under 25° C./60% RH, 40° C./75% RH and 60° C./75% RH conditions, in opened packages, respectively. The purity and solid form were determined by UPLC and XRPD. The results are listed in Table 3, and the overlaid XRPD patterns of Form CSII before and after storage for stability evaluation are shown in FIG. 4.
Form CSIII of the present disclosure and the prior art amorphous form were weighed and stored under 25° C./60% RH, 40° C./75% RH and 60° C./75% RH conditions, in opened packages, respectively. The purity and solid form were determined by UPLC and XRPD. The results are listed in Table 10, and the overlaid XRPD patterns of Form CSIII before and after storage for stability evaluation are shown in FIG. 9.
Form CSIV of the present disclosure and the prior art amorphous form were weighed and stored under 25° C./60% RH and 40° C./75% RH conditions, in opened packages, respectively. The purity and solid form were determined by UPLC and XRPD. The results are listed in Table 16, and the overlaid XRPD patterns of Form CSIV before and after storage for stability evaluation are shown in FIG. 15.

[3] = Hygroscopicity by DVS (0% RH-95% RH-0% RH at 25° C.); settings: for Weight gain relative to that of the prior art / Weight gain at 80% RH: 80% RH; for Weight gain at 80% RH: DVS; for Weight gain at 80% RH / Hygroscopicity class: 25° C.; for Crystalline state after the DVS test: XRPD before and after DVS; for Hygroscopicity class: weight gain at 80% RH
Procedure: DVS was measured via an SMS (Surface Measurement Systems Ltd.) intrinsic DVS instrument.
Parameters for DVS method are as follows: • Temperature: 25° C. • Gas and flow rate: nitrogen, 200 mL/min • RH range: 0% RH to 95% RH • ^1H NMR were collected from a Bruker Avance II DMX 400M HZ NMR spectrometer. 1-5 mg of sample was weighed and dissolved in 0.5 mL of deuterated dimethyl sulfoxide to obtain a solution with a concentration of 2-10 mg/mL.
Certain amounts of Form CSII of the present disclosure and the prior art amorphous form were sampled for hygroscopicity tests using DVS instrument. The weight change at each relative humidity was recorded during the cycle of 0% RH-95% RH-0% RH at 25° C.
Description and definition of hygroscopicity (general notice 9103 drug hygroscopicity test guidelines in 2020 edition of Chinese Pharmacopoeia, experimental condition: 25±1° C., 80±2% RH):
Certain amounts of Form CSIII of the present disclosure and the prior art amorphous form were sampled for hygroscopicity tests using DVS instrument. The weight change at each relative humidity was recorded during the cycle of 0% RH-95% RH-0% RH at 25° C.
Certain amounts of Form CSIV of the present disclosure and the prior art amorphous form were sampled for hygroscopicity tests using DVS instrument. The weight change at each relative humidity was recorded during the cycle of 0% RH-95% RH-0% RH at 25° C.

[4] = Grinding stability (manual grinding 5 minutes in a mortar, XRPD); settings: ground manually 5 minutes in a mortar
Procedure: Form CSII was grounded manually for 5 minutes in a mortar. XRPD was tested before and after the grinding.
Form CSIII was grounded manually for 5 minutes in a mortar. XRPD was tested before and after the grinding.
Form CSIV was grounded manually for 5 minutes in a mortar. XRPD was tested before and after the grinding.

[5] = Light stability (Chinese Pharmacopoeia method, purity by UPLC); settings: light not less than 1.2×10^6 lux-hr, near-UV not less than 200 W-hr/m^2; for Purity change: 1 week; for Chemical purity (in words): about 1 week
Source text: as §1
Certain amounts of Form CSII of the present disclosure and the prior art amorphous form were weighted and stored for about 1 week, in accordance with the method of the Chinese Pharmacopoeia, under the condition that the total illumination of the light source was not less than […] and the energy of the near-ultraviolet lamp was not less than 200 W-hr/m^2, the purities of the solids before and after storage were measured by UPLC and the results are shown in Table 5.
Certain amounts of Form CSIII of the present disclosure and the prior art amorphous form were weighted and stored for about 1 week, in accordance with the method of the Chinese Pharmacopoeia, under the condition that the total illumination of the light source was not less than 1.2×10^6 lux-hr and the energy of the near-ultraviolet lamp was not less than 200 W-hr/m^2, the purities of the solids before and after storage were measured by UPLC and the results are shown in Table 12.
Certain amounts of Form CSIV of the present disclosure and the prior art amorphous form were weighted and stored for about 1 week, in accordance with the method of the Chinese Pharmacopoeia, under the condition that the total illumination of the light source was not less than 1.2×10^6 lux-hr and the energy of the near-ultraviolet lamp was not less than 200 W-hr/m^2, the purities of the solids before and after storage were measured by UPLC and the results are shown in Table 18.

[6] = Stability of crystalline form in tablet formulation process (XRPD before and after); settings: tablets per Table 7 and Table 8, XRPD
Procedure: According to the formulation and process in Table 7 and Table 8, the tablets were prepared with an appropriate amount of Form CSII of the present disclosure. XRPD was tested before and after formulation.
According to the formulation and process in Table 7 and Table 8, the tablets were prepared with an appropriate amount of Form CSIII of the present disclosure. XRPD was tested before and after formulation.
According to the formulation and process in Table 7 and Table 8, the tablets were prepared with an appropriate amount of Form CSIV of the present disclosure. XRPD was tested before and after formulation.

[7] = 25° C./60% RH, 6 months, open package
[8] = 40° C./75% RH, 6 months, open package
[9] = 60° C./75% RH, 1 month, open package
[10] = 25° C./60% RH, 2 months, open package
[11] = 40° C./75% RH, 2 months, open package

In the case of `C=CC(=O)N1CCC[C@@H](n2c(=O)n(-c3ccc(Oc4ccccc4)cc3)c3c(N)nccc32)C1` [Form CSIII, (R)-1-(1-acryloylpiperidin-3-yl)-4-amino-3-(4-phenoxyphenyl)-1H-imidazo[4,5-c] pyridin-2(3H)-one], the “Time for which chemical purity remains substantially unchanged” value [1] is reported as “at least 2 days”, the “Chemical purity (in words)” value [1] is reported as “basically remained unchanged” and the Purity change [1] is reported as “+0.04%”. For the same molecule, the “Chemical purity during storage” value ([2]; 25° C./60% RH) was “above 99.9%”, the “Time for which the crystalline state doesn't change / form is stable” value ([2]; 25° C./60% RH) was “at least 6 months” and the Purity [2, 7] was 99.93%. For the same molecule, the Purity change [2, 7] was “+0.02%”, the Solid form [2, 7] was “Form CSIII” and the “The number of the purities exceeding the qualification thresholds” value (“The number” below) [2, 7] was 0. The “Time for which the crystalline state doesn't change / form is stable” value ([2]; 40° C./75% RH) was “at least 6 months”, the “Chemical purity during storing” value ([2]; 40° C./75% RH and 60° C./75% RH) was “above 99.8%” and the Purity [2, 8] was 99.91%. The Purity change [2, 8] was 0%, the Solid form [2, 8] was “Form CSIII” and the “The number” value [2, 8] was 0. The “Time for which the crystalline state doesn't change” value ([2]; 60° C./75% RH) was “at least 1 month”, the “Solid form and purity after storage” value ([2]; 60° C./75% RH, 1 month) was “remained basically unchanged” and the Purity [2, 9] was 99.86%. For the same molecule, the Purity change [2, 9] was −0.05%, the Solid form [2, 9] was “Form CSIII” and the “The number” value [2, 9] was 0. For the same molecule, the Purity ([2]; Initial) was 99.91%, the Solid form ([2]; Initial) was “Form CSIII” and the “The number” value ([2]; Initial, ICH Q3A (R2) thresholds) was 0. The “Impurity content versus qualification threshold” value ([2]; throughout the stability investigation processes) was “did not exceed the qualification thresholds; also recorded: did not exceed the qualificated threshold”, the “Weight gain relative to that of the prior art” value [3] was “⅙” and the “Weight gain at 80% RH” value [3] was 0.66%. For the same molecule, the “Crystalline state after the DVS test” value [3] was “remained unchanged”, the Hygroscopicity class [3] was “slightly hygroscopic” and the “Crystalline state after grinding” value [4] was “remains unchanged”. The Purity change [5] was “+0.02%”, the “Chemical purity (in words)” value [5] was “basically remained unchanged” and the “Time for which there is no change in the purity” value [5] was “at least 1 week”. For the same molecule, the “Crystalline state after formulation process (mixed with excipients, tableted)” value [6] was “remained unchanged; also recorded: did not change”.
In the case of `C=CC(=O)N1CCC[C@@H](n2c(=O)n(-c3ccc(Oc4ccccc4)cc3)c3c(N)nccc32)C1` [Form CSIV, (R)-1-(1-acryloylpiperidin-3-yl)-4-amino-3-(4-phenoxyphenyl)-1H-imidazo[4,5-c] pyridin-2(3H)-one], the “Chemical purity (in words)” value [1] is reported as “basically remained unchanged”, the Purity change [1] is reported as “+0.03%” and the “Chemical purity during storage” value ([2]; 25° C./60% RH) is reported as “above 99.7%”. The “Time for which the crystalline state doesn't change / form is stable” value ([2]; 25° C./60% RH) was “at least 2 months”, the Purity [2, 10] was 99.74% and the Purity change [2, 10] was 0.00%. The Solid form [2, 10] was “Form CSIV”, the “Time for which the crystalline state doesn't change / form is stable” value ([2]; 40° C./75% RH) was “at least 2 months” and the Purity [2, 11] was 99.75%. The Purity change [2, 11] was “+0.01%”, the Solid form [2, 11] was “Form CSIV” and the Purity ([2]; Initial) was 99.74%. For the same molecule, the Solid form ([2]; Initial) was “Form CSIV”, the “Weight gain relative to that of the prior art” value [3] was 1/15 and the “Weight gain at 80% RH” value [3] was 0.24%. For the same molecule, the “Crystalline state after the DVS test” value [3] was “remained unchanged”, the Hygroscopicity class [3] was “slightly hygroscopic” and the “Crystalline state after grinding” value [4] was “remains unchanged”. The Purity change [5] was “+0.06%”, the “Chemical purity (in words)” value [5] was “basically remained unchanged” and the “Crystalline state after formulation process (mixed with excipients, tableted)” value [6] was “remained unchanged; also recorded: did not change”.
